{
  "source": "patent US20160166572A1",
  "about": "“BENEFICIAL EFFECTS OF Lp-PLA2 INHIBITORS IN TREATMENT OF DIABETIC RETINOPATHY AND AGE-RELATED MACULAR DEGENERATION” (Rowan University, priority 2014, published 2016)",
  "type_in_all_cases": "in vivo, pig",
  "key": {"[1]": {"test_system": "claudin5", "assay": "Claudin5 protein expression in BVECs of cerebral cortex (IHC, MATLAB), DMHC pigs", "conditions": "Darapladib 10 mg/kg/d orally, 24 weeks", "description": "Briefly, after induction of diabetes by a single injection of Streptozotocin, animals were fed a high cholesterol diet. After a month of DMHC induction and acclimation, animals were randomly segregated to untreated DMHC and Darapladib-treated DMHC groups. Darapladib-treated pigs received 10 mg/kg/d of Darapladib orally. Three of the pigs were spared from DMHC induction and served as age-matched, non-DMHC normal controls. Twenty four weeks after acclimation, animals were euthanized and their brains and eyes were immediately removed. Brains were divided anteroposteriorly into anterior, middle and posterior regions. For each of these brain regions, 2-3 tissue blocks were generated for routine tissue fixation (10% formalin) or freezing and histological processing. The anterior cortical region comprised of anterior 2⁄3 of frontal lobe and anterior 1⁄3 of temporal lobe. The middle cortical region contained mid 1⁄3 of temporal lobe and anterior 1⁄2 of the parietal lobe. The posterior cortex included the posterior 1⁄2 of the parietal lobe, posterior 1⁄3 of the temporal lobe and the occipital lobe. Eyes were dissected longitudinally to sever the retina at the optic nerve. The sections were fixed in 10% formalin and embedded as flattened disc in paraffin. The tissue samples were processed using routine histology techniques. Standard Hematoxylin & Eosin (H&E) staining (FIG. 1) was carried out in retinal sections. Localization of claudin5, occludin and IgG in the cerebral cortex and retina was carried out using immunohistochemistry (IHC) as described previously. Briefly, tissue sections were deparaffinized in xylene and rehydrated in decreasing concentrations of ethanol. The antigenicity of these tissues was enhanced by microwaving in citrate buffer. Sections were treated with 3% H2O2 for 10 minutes to quench endogenous peroxidase activity. Tissues were subsequently treated with their appropriate blocking serum for 30 minutes at room temperature and then probed with anti-claudin5 (Invitrogen, Cat #35-2500, dilution 1:150) or anti-occludin (Invitrogen, Cat #71-1500, dilution 1:800) antibodies for 1 hour at room temperature. Extravasated IgG was detected using biotinylated anti-swine IgG antibody (Vector laboratories, Inc., Catalogue # BA-9020; dilution 1:100). The use of occludin antibody required pre-treatment with a protease (Sigma, Catalogue P-5147; 1.5 mg/ml) for 10 minutes at 37° C. At the end of primary antibody step, all tissue sections were thoroughly rinsed in PBS and then probed with biotin-labeled secondary antibodies [anti-mouse IgG (Vector laboratories, Catalogue # PK-6102; Dilution 1:100) for claudin5 and anti-rabbit IgG (Vector laboratories, Inc., Catalogue # PK-6101; Dilution 1:100) for occludin] for 30 minutes at room temperature. Sections were then rinsed in PBS, treated with avidin-peroxidase complex (Vectastain ABC Elite kit, Vector Laboratories, Inc., Catalogue PK-6100), washed with PBS and visualized with 3-3-diaminobenzidine-4-HCL (DAB)/H2O2 (Imm-PACT-DAB) (Dako, Code K3468). […] Slides were examined and photographed with a Nikon FXA microscope, and digital images were recorded using a Nikon DXM1200F digital camera and analyzed using MATLAB (MathWorks, Mass., USA) and NIS-elements software (Nikon, Melville, N.Y.). […] Claudin5 and occludin protein expression in pig cerebral cortex was evaluated semi-quantitatively using IHC by taking images at five random locations as described previously. Images were analyzed using MATLAB (MathWorks, Mass., USA). […]"}, "[2]": {"test_system": "porcine retina", "assay": "Determination of retinal layer thickness (H&E, ImagePro) in DMHC porcine model", "conditions": "DMHC pigs, Darapladib 10 mg/kg/d orally, 24 weeks", "description": "Briefly, after induction of diabetes by a single injection of Streptozotocin, animals were fed a high cholesterol diet. After a month of DMHC induction and acclimation, animals were randomly segregated to untreated DMHC and Darapladib-treated DMHC groups. Darapladib-treated pigs received 10 mg/kg/d of Darapladib orally. Three of the pigs were spared from DMHC induction and served as age-matched, non-DMHC normal controls. Twenty four weeks after acclimation, animals were euthanized and their brains and eyes were immediately removed. Brains were divided anteroposteriorly into anterior, middle and posterior regions. For each of these brain regions, 2-3 tissue blocks were generated for routine tissue fixation (10% formalin) or freezing and histological processing. The anterior cortical region comprised of anterior ⅔ of frontal lobe and anterior ⅓ of temporal lobe. The middle cortical region contained mid ⅓ of temporal lobe and anterior ½ of the parietal lobe. The posterior cortex included the posterior ½ of the parietal lobe, posterior ⅓ of the temporal lobe and the occipital lobe. Eyes were dissected longitudinally to sever the retina at the optic nerve. The sections were fixed in 10% formalin and embedded as flattened disc in paraffin. The tissue samples were processed using routine histology techniques. Standard Hematoxylin & Eosin (H&E) staining (FIG. 1) was carried out in retinal sections. The remarkably uniform and laminated histological architecture of the retina lends itself well to direct measurements of the thickness of the various layers as shown in FIG. 1. Using the image analysis software, ImagePro 7.0 (Media Cybernetics, Silver Spring, Md.), the thickness of all retinal layers were measured. The thickness of each retinal layer was measured in three separate retinal sections obtained from each animal. In each section, measurements were made at two randomly selected locations in the middle part of retina. Results were averaged for each pig. The identity of specimens was blinded and two independent investigators carried out this analysis. In addition, the percentage contribution of each retinal layer to the total thickness of the retina was calculated and compared among the different treatment groups (FIG. 2). The thickness of the individual layers of the retina was measured in transverse sections stained with Hematoxylin and Eosin using the image analysis software, ImagePro 7.0."}, "[3]": {"test_system": "occludin", "assay": "Occludin protein expression in BVECs of cerebral cortex (IHC, MATLAB), DMHC pigs", "conditions": "Darapladib 10 mg/kg/d orally, 24 weeks", "description": "Briefly, after induction of diabetes by a single injection of Streptozotocin, animals were fed a high cholesterol diet. After a month of DMHC induction and acclimation, animals were randomly segregated to untreated DMHC and Darapladib-treated DMHC groups. Darapladib-treated pigs received 10 mg/kg/d of Darapladib orally. Three of the pigs were spared from DMHC induction and served as age-matched, non-DMHC normal controls. Twenty four weeks after acclimation, animals were euthanized and their brains and eyes were immediately removed. Brains were divided anteroposteriorly into anterior, middle and posterior regions. For each of these brain regions, 2-3 tissue blocks were generated for routine tissue fixation (10% formalin) or freezing and histological processing. The anterior cortical region comprised of anterior 2⁄3 of frontal lobe and anterior 1⁄3 of temporal lobe. The middle cortical region contained mid 1⁄3 of temporal lobe and anterior 1⁄2 of the parietal lobe. The posterior cortex included the posterior 1⁄2 of the parietal lobe, posterior 1⁄3 of the temporal lobe and the occipital lobe. Eyes were dissected longitudinally to sever the retina at the optic nerve. The sections were fixed in 10% formalin and embedded as flattened disc in paraffin. The tissue samples were processed using routine histology techniques. Standard Hematoxylin & Eosin (H&E) staining (FIG. 1) was carried out in retinal sections. […] Extravasated IgG was detected using biotinylated anti-swine IgG antibody (Vector laboratories, Inc., Catalogue # BA-9020; dilution 1:100). […] Slides were examined and photographed with a Nikon FXA microscope, and digital images were recorded using a Nikon DXM1200F digital camera and analyzed using MATLAB (MathWorks, Mass., USA) and NIS-elements software (Nikon, Melville, N.Y.). […] Claudin5 and occludin protein expression in pig cerebral cortex was evaluated semi-quantitatively using IHC by taking images at five random locations as described previously. Images were analyzed using MATLAB (MathWorks, Mass., USA). […]"}},
  "data": [
    {"smiles": "CCN(CC)CCN(Cc1ccc(-c2ccc(C(F)(F)F)cc2)cc1)C(=O)Cn1c(SCc2ccc(F)cc2)nc(=O)c2c1CCC2", "note": "[Darapladib]", "values": [
      {"measurement": "claudin5 protein expression, anterior cortex, versus DMHC group", "setting": "[1]; FIG. 7A", "value": "reduction in claudin5 expression compared to the DMHC group, but this difference did not reach statistical significance"},
      {"measurement": "claudin5 protein expression, anterior cortex, versus controls", "setting": "[1]; FIG. 7A", "value": "significantly higher than in controls"},
      {"measurement": "claudin5 protein expression, middle cortex, versus DMHC only", "setting": "[1]; FIG. 7B", "value": "approached statistical significance"},
      {"measurement": "claudin5 protein expression, middle cortex, versus controls", "setting": "[1]; FIG. 7B", "value": "reduced expression of claudin5 to levels not significantly different from controls"},
      {"measurement": "claudin5 protein expression, posterior cortex", "setting": "[1]; rank among treatment groups, FIG. 7C", "value": "highest expression of claudin5"},
      {"measurement": "thickness of ganglion cell layer (GCL)", "setting": "[2]; FIG. 2B", "value": "comparable to controls"},
      {"measurement": "thickness of outer nuclear layer (ONL)", "setting": "[2]; FIG. 2C", "value": "comparable to controls"},
      {"measurement": "thickness of inner-segment (IS)/outer-segment (OS) layer", "setting": "[2]; FIG. 2D", "value": "comparable to controls"},
      {"measurement": "thickness of inner plexiform layer (IPL)", "setting": "[2]; FIG. 2E", "value": "lowered IPL thickness in DMHC animals to near control levels"},
      {"measurement": "thickness of inner nuclear layer (INL)", "setting": "[2]; FIG. 2F", "value": "comparable thickness across all treatment groups"},
      {"measurement": "occludin protein expression, middle cortex", "setting": "[3]; FIG. 7E", "value": "comparable levels of occludin expression"},
      {"measurement": "occludin protein expression, anterior cortex", "setting": "[3]; rank among treatment groups, FIG. 7D", "value": "highest level of occludin expression"},
      {"measurement": "occludin protein expression, posterior cortex", "setting": "[3]; rank among treatment groups, FIG. 7F", "value": "lowest expression"}
    ]}
  ]
}
